ChEMBL document CHEMBL5728847, “Cyanoindoline derivatives as NIK inhibitors” (2021)

Biological target: Mitogen-activated protein kinase kinase kinase 14 (Homo sapiens, UniProt Q99558)
Assay: Inhibition of Auto-Phosphorylation of Recombinant Human NF-kappaB-Inducing Kinase (NIK1/AP3K14) Activity: NIK/MAP3K14 auto-phosphorylation activity was measured using the AlphaScreen® (αscreen) format (Perkin Elmer). All compounds tested were dissolved in dimethyl sulfoxide (DMSO) and further dilutions were made in assay buffer. Final DMSO concentration was […] in assays. Assay buffer was 50 mM Tris pH 7.5 containing 1 mM EGTA (ethylene glycol tetraacetic acid), 1 mM DTT (dithiothreitol), 0.1 mM Na3VO4, 5 mM MgCl2, 0.01% Tween® 20. Assays were carried out in 384 well Alphaplates (Perkin Elmer). Incubations consisted of compound, 25 microM Adenosine-5′-triphosphate (ATP), and 0.2 nM NIK/MAP3K14. Incubations were initiated by addition of GST-tagged NIK/MAP3K14 enzyme, carried out for 1 h at 25° C. and terminated by addition of stop buffer containing anti-phospho-[…] Ser176/180 antibody. Protein A Acceptor and Glutathione-Donor beads were added before reading using an EnVision® Multilabel Plate Reader (Perkin Elmer). Signal obtained in the wells containing blank samples was subtracted from all other wells and IC50's were determined by fitting a sigmoidal curve to % inhibition of control versus Log10 compound concentration.

Chain of Mitogen-activated protein kinase kinase kinase 14 (Q99558 whole entry): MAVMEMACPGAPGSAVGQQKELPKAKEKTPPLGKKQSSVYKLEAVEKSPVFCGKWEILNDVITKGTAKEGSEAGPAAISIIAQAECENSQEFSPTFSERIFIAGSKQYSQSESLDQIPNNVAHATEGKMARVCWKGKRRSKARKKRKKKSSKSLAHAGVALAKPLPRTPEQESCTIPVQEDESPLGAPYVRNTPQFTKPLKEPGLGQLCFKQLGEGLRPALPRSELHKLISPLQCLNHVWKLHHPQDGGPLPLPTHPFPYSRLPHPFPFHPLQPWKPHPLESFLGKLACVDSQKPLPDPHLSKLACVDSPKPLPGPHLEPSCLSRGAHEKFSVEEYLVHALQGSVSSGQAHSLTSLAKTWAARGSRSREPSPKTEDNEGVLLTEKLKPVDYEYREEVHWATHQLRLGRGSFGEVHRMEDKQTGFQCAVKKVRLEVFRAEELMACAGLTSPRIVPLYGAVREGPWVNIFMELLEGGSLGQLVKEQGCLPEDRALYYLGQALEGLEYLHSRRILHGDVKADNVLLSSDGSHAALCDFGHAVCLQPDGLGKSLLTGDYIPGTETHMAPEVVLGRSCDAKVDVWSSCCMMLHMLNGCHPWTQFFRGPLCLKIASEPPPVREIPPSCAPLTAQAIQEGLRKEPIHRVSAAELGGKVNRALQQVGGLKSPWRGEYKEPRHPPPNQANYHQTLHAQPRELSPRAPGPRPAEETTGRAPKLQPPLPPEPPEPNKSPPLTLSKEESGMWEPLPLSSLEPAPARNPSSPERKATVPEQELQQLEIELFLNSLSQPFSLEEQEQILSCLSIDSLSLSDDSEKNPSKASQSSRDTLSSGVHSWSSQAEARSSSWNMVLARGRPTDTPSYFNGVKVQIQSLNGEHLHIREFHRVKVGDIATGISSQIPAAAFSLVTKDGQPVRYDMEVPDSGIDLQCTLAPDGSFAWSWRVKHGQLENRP

| IC50 | Compound |
| --- | --- |
| 1.8 nM | COc1nc2c(cc1Nc1nccc(-c3cc(C#N)c4c(c3)[C@@](C)(CO)CN4)n1)CCN(C)C2 |
| 4.2 nM | CN1CCc2ncc(Nc3ncc(F)c(-c4cc(C#N)c5c(c4)[C@@](C)(CO)CN5)n3)cc2C1 |
| 148 nM | CC1(C)CNc2c(C#N)cc(-c3ccnc(Nc4cc(Cl)cc5[nH]ccc45)n3)cc21 |
